Experimental data taken from the supplement of paper PMC13380429.

What was measured:
Conditions in all cases: 72 h
Calu-3 [1] = assay: drug sensitivity score (DSS) for viability; higher = more toxic; extreme values may be limits of the assay
Vero E6 [2] = assay: as above
Caco-2 [3] = assay: as above
U2OS [4] = assay: as above
Calu-3 [5] = assay: cell viability relative to DMSO; higher = less toxic
Vero E6 [6] = assay: as above
Caco-2 [7] = assay: as above
U2OS [8] = assay: as above
Calu-3 [9] = assay: relative viability EC50 (midpoint between 100% and the lowest measured viability); higher = less toxic
Vero E6 [10] = assay: as above
U2OS [11] = assay: as above
Caco-2 [12] = assay: as above
HepG2 [13] = assay: drug sensitivity score (DSS) for viability; higher = more toxic; extreme values may be limits of the assay
HepG2 [14] = assay: cell viability relative to DMSO; higher = less toxic
HepG2 [15] = assay: relative viability EC50 (midpoint between 100% and the lowest measured viability); higher = less toxic

Row | Structure (SMILES) | drug sensitivity score (Calu-3 [1]) | drug sensitivity score (Vero E6 [2]) | drug sensitivity score (Caco-2 [3]) | drug sensitivity score (U2OS [4]) | cell viability (Calu-3 [5]; 1 nM) [%] | cell viability (Calu-3 [5]; 10 nM) [%] | cell viability (Calu-3 [5]; 100 nM) [%] | cell viability (Calu-3 [5]; 1000 nM) [%] | cell viability (Calu-3 [5]; 10000 nM) [%] | cell viability (Vero E6 [6]; 1 nM) [%] | cell viability (Vero E6 [6]; 10 nM) [%] | cell viability (Vero E6 [6]; 100 nM) [%] | cell viability (Vero E6 [6]; 1000 nM) [%] | cell viability (Vero E6 [6]; 10000 nM) [%] | cell viability (Caco-2 [7]; 1 nM) [%] | cell viability (Caco-2 [7]; 10 nM) [%] | cell viability (Caco-2 [7]; 100 nM) [%] | cell viability (Caco-2 [7]; 1000 nM) [%] | cell viability (Caco-2 [7]; 10000 nM) [%] | cell viability (U2OS [8]; 1 nM) [%] | cell viability (U2OS [8]; 10 nM) [%] | cell viability (U2OS [8]; 100 nM) [%] | cell viability (U2OS [8]; 1000 nM) [%] | cell viability (U2OS [8]; 10000 nM) [%] | relative viability EC50 (Calu-3 [9]) [µM] | relative viability EC50 (Vero E6 [10]) [µM] | relative viability EC50 (U2OS [11]) [µM] | relative viability EC50 (Caco-2 [12]) [µM] | drug sensitivity score (HepG2 [13]) | cell viability (HepG2 [14]; 1 nM) [%] | cell viability (HepG2 [14]; 10 nM) [%] | cell viability (HepG2 [14]; 100 nM) [%] | cell viability (HepG2 [14]; 1000 nM) [%] | cell viability (HepG2 [14]; 10000 nM) [%] | relative viability EC50 (HepG2 [15]) [µM]
1 | C#C[C@]1(OC(C)=O)CC[C@H]2[C@@H]3CCC4=CC(=O)CC[C@@H]4[C@H]3CC[C@@]21C [norethindrone-acetate] | 0 | 0 | 2.3 | 0 | 93.2 | 82.9 | 90.8 | 104 | 95.6 | 104 | 108 | 110 | 90.5 | 98.1 | 91.8 | 97.1 | 84.7 | 95 | 70.4 | 100 | 99.6 | 98.5 | 98.5 | 94.9 | > 10 | > 10 | > 10 | – | – | – | – | – | – | – | –
2 | O/N=C/c1cc[n+](COC[n+]2ccc(/C=N/O)cc2)cc1 [obidoxime] | 0 | – | 0 | 0 | 102 | 91.8 | 100 | 84.1 | 106 | – | – | – | – | – | 94.5 | 99.4 | 94.4 | 94.7 | 94.6 | 97.2 | 101 | 94.9 | 95.2 | 102 | > 10 | – | > 10 | > 10 | – | – | – | – | – | – | –
3 | Cc1cn2nc([C@@H]3CCCCN3C(=O)c3cc(Cl)ccc3NS(C)(=O)=O)cc2nc1N1CC[C@H](N)C1 [presatovir] | 0 | 0 | 3 | 1.1 | 102 | 107 | 102 | 94 | 98.5 | 98.8 | 103 | 94.4 | 96.8 | 102 | 93.8 | 95.2 | 102 | 96.2 | 53.9 | 101 | 97 | 100 | 98.3 | 76.6 | > 10 | > 10 | > 10 | – | 0 | 98.8 | 110 | 104 | 106 | 105 | > 10
4 | CC(C)(C)Sc1c(CC(C)(C)C(=O)O)n(Cc2ccc(Cl)cc2)c2ccc(OCc3ccc4ccccc4n3)cc12 [quiflapon] | 0 | – | 0 | 0 | 91.5 | 97.3 | 98.7 | 102 | 110 | – | – | – | – | – | 104 | 102 | 97 | 96 | 102 | 102 | 108 | 104 | 99.6 | 109 | > 10 | – | > 10 | > 10 | 0 | 105 | 95.6 | 96.8 | 98.3 | 104 | > 10
5 | O=C(/C=C/c1ccccc1)NC(NC(=S)Nc1cccc2cccnc12)C(Cl)(Cl)Cl (stereo not drawn) [salubrinal] | 0 | – | 0.4 | 0 | 99.4 | 100 | 97.6 | 109 | 87.1 | – | – | – | – | – | 126 | 102 | 96.7 | 103 | 80.1 | 98.3 | 107 | 101 | 102 | 91.1 | > 10 | – | > 10 | > 10 | 0 | 107 | 111 | 99.1 | 101 | 108 | > 10
6 | O=C1c2ccc(Nc3ccc(F)cc3F)cc2CCc2ccc(OC[C@H](O)CO)cc21 [skepinone-L] | 0 | 1.9 | 2.5 | 0.1 | 97.2 | 94 | 96.2 | 101 | 94.7 | 103 | 103 | 86.8 | 89.4 | 80.3 | 103 | 84.1 | 89.2 | 91.7 | 73.4 | 96.5 | 91.8 | 91.4 | 90.2 | 89.5 | > 10 | > 10 | > 10 | – | 0.8 | 102 | 109 | 98.8 | 101 | 75.2 | > 10
7 | Cc1nnc(NS(=O)(=O)c2ccc(N)cc2)s1 [sulfamethizole] | 0 | – | 0 | 0 | 96.3 | 98.4 | 96.7 | 99.2 | 105 | – | – | – | – | – | 88.1 | 85.7 | 98.9 | 93.6 | 99 | 103 | 98.1 | 103 | 99.2 | 99.2 | > 10 | – | > 10 | > 10 | 0 | 102 | 111 | 98 | 108 | 90.4 | > 10
8 | Cc1cn([C@H]2C[C@H](N=[N+]=[N-])[C@@H](CO)O2)c(=O)[nH]c1=O [zidovudine] | 0 | – | 0 | 0 | 107 | 89.6 | 101 | 98.9 | 103 | – | – | – | – | – | 94.9 | 92.6 | 105 | 98 | 98 | 103 | 104 | 95.2 | 103 | 94.3 | > 10 | – | > 10 | > 10 | 0 | 101 | 109 | 99 | 94.6 | 104 | > 10
